Molecular target: N-type calcium channel (α1B (Cav2.2), β3 and α2δ subunits) (Homo sapiens, UniProt Q00975)
Experiment: Functional Assay: Antagonism of N-Type Calcium Channel (FDSS calcium mobilization, KCl depolarization)
Assay type: cell-based
Details: for IC50: HEK cell line, 50 mM KCl depolarization, six-point concentration-response, read-out: FDSS IC50
Protocol: A stable cell line (HEK parent) co-expressing the α1B (Cav2.2), β3 and α2δ subunits of the N-type calcium channel subunits was used. These cells were routinely grown as monolayers in low glucose-containing Dulbecco's Modified Eagle Medium supplemented with 10% FBS, 2 mM L-glutamine, 100 I.U./mL penicillin, 100 μg/mL streptomycin, 400 μg/mL G418 and 200 μg/mL Zeocin (split ratio=1:5). Cells were maintained in 5% CO2 at 37° C. Compounds of Formula (I) were prepared as 10 mM stocks in DMSO from neat compound, if available. Otherwise, the 5 or 10 mM DMSO stock solutions provided in-house were used.
Calcium mobilization responses to KCl depolarization were evaluated by measuring the intensity of calcium-mediated fluorescent signal in the presence of BD Calcium Assay Dye (BD Biosciences, Franklin Lakes, N.J., U.S.A.), utilizing a Functional Drug Screening System (FDSS) by Hamamatsu Corporation (Bridgewater, N.J. U.S.A.).
Twenty-four hr prior to assay, cells were seeded in clear-base poly-D-lysine-coated 384-well plates (BD Biosciences) at a density of 5,000 cells per well in culture medium and grown overnight in 5% CO2 at 37° C. On the day of assay, growth media were removed, and cells were loaded with BD calcium assay dye (BD Biosciences) for 35 min at 37° C. under 5% CO2 and then for 25 min at room temp. Utilizing the FDSS, cells were exposed to representative compounds of Formula (I) at varying concentrations, and intracellular calcium was measured for 5 min prior to the addition of 50 mM KCl for an additional 3 min of measurement.
Calculations and Formulas
IC50 values for representative compounds of Formula (I) were determined from six-point concentration-response experiments and represent the concentration of said compound required to inhibit 50% of the maximal response. Maximal fluorescence intensity (FI) achieved upon addition of 50 mM KCl was exported from the FDSS software and further analyzed using GraphPad Prism 3.02 (Graph Pad Software Inc., San Diego, Calif., U.S.A.). Data were normalized to the maximum average counts from quadruplicate wells for each condition in the presence of 50 mM KCl and to the minimum average counts in the presence of buffer. Theoretical curves were generated using nonlinear regression curve-fitting analysis of either sigmoidal concentration-response or sigmoidal concentration-response (variable slope), and the IC50 values with the best-fit curve determined by GraphPad Prism were reported.

Chain of N-type calcium channel (α1B (Cav2.2), β3 and α2δ subunits) (Q00975 whole entry): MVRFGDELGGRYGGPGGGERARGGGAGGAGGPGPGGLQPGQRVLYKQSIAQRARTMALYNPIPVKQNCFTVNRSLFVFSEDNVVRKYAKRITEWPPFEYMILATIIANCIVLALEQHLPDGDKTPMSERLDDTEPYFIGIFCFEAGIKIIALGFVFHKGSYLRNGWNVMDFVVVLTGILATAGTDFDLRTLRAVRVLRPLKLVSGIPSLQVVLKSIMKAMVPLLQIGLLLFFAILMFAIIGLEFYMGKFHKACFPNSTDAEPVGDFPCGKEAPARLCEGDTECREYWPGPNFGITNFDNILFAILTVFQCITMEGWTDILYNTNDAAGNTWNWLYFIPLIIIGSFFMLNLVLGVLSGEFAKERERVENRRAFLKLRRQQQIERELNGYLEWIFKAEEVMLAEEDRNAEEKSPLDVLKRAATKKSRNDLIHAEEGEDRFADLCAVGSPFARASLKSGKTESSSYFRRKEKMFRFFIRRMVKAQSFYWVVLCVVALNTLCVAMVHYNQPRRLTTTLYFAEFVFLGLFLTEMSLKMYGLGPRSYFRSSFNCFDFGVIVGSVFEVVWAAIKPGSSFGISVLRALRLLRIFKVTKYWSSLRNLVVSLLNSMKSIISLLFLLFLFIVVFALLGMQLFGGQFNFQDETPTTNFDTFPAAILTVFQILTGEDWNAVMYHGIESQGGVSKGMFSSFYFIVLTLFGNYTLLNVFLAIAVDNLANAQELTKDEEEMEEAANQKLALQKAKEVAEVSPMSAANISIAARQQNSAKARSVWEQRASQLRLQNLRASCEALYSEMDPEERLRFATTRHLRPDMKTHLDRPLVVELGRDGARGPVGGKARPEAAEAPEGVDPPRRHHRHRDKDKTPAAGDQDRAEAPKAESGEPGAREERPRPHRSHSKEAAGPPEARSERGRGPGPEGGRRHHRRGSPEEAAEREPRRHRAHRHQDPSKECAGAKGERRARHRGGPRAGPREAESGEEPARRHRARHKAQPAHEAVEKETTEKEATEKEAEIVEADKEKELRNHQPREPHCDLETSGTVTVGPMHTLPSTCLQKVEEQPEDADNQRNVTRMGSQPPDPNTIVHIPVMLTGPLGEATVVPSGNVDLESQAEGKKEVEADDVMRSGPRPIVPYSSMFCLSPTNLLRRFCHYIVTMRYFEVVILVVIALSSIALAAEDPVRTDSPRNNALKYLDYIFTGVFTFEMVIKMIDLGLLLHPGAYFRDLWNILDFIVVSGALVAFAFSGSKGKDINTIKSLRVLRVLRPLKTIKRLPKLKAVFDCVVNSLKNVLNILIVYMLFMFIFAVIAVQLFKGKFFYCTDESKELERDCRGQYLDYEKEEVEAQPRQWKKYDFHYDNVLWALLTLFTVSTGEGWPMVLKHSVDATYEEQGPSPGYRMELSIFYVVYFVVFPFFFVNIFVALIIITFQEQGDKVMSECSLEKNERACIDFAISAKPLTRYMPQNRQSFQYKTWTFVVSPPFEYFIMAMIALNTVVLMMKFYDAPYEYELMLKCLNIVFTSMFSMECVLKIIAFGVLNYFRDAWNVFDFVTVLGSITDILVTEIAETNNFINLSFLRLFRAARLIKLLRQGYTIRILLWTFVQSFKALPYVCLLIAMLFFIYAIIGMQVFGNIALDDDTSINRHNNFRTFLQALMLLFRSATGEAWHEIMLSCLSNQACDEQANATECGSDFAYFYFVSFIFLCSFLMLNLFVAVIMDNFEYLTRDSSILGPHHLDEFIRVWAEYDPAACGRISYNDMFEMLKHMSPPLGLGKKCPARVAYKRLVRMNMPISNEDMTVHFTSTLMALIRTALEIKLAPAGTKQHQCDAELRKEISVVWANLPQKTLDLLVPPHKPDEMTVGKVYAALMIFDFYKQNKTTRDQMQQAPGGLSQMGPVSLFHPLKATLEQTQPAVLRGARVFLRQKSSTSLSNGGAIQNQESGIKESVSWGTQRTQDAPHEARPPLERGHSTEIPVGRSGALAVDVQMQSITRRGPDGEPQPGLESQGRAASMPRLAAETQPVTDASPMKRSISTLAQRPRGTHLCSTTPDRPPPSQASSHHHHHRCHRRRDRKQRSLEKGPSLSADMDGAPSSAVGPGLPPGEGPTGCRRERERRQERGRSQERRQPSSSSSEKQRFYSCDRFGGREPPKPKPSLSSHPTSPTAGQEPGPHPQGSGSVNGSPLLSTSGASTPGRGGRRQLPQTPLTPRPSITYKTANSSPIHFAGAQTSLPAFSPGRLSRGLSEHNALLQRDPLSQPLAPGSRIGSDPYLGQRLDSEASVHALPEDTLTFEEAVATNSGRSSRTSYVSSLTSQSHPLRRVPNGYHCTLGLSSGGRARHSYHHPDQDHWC
Chain of N-type calcium channel (α1B (Cav2.2), β3 and α2δ subunits) (P54284 whole entry partner): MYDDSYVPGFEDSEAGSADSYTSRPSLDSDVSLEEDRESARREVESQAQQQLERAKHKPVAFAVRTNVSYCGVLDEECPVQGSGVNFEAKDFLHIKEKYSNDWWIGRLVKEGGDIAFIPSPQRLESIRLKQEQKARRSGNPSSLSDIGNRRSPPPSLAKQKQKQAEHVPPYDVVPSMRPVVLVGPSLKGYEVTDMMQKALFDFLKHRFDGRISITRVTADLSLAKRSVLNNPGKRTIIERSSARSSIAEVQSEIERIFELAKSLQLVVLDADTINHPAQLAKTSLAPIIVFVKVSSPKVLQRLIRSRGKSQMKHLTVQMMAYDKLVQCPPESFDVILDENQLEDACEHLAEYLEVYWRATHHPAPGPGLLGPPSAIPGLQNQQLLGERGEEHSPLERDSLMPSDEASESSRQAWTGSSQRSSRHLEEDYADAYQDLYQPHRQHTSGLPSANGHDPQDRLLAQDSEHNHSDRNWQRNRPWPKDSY
Chain of N-type calcium channel (α1B (Cav2.2), β3 and α2δ subunits) (P54289 25-946 partner limits assumed): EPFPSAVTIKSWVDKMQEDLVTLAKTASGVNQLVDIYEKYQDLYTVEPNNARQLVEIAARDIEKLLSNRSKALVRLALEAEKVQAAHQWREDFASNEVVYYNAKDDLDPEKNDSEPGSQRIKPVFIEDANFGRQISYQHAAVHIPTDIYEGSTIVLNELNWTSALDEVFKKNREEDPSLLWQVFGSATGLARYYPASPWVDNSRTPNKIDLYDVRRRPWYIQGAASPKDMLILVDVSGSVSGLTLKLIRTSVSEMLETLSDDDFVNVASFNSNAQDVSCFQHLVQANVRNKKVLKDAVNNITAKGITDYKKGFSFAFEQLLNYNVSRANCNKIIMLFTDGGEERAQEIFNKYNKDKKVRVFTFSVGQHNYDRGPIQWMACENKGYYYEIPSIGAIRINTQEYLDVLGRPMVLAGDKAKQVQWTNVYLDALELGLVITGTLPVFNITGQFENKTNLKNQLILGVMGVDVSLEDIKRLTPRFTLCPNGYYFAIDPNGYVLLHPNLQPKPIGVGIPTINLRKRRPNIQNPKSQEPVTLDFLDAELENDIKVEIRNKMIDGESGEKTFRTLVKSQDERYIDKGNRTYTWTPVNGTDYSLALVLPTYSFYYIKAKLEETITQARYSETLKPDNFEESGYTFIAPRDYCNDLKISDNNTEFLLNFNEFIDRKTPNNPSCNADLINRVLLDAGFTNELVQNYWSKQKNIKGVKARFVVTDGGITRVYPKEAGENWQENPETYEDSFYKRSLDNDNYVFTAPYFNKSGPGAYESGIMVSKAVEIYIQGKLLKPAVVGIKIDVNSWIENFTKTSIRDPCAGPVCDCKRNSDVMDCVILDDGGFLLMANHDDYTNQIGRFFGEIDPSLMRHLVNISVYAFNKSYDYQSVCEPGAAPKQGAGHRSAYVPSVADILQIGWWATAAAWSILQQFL
Chain of N-type calcium channel (α1B (Cav2.2), β3 and α2δ subunits) (P54289 947-1103 partner limits assumed): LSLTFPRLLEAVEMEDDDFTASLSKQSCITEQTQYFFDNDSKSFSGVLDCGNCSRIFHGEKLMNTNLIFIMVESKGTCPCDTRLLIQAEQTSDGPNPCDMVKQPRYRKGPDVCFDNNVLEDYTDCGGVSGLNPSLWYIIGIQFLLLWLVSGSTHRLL

Compound | IC50 [nM] | inhibition at 1 µM [%] | inhibition at 0.33 µM [%]
CCc1ccccc1-n1nc2c(c1-c1ccc(Cl)cc1)CC(/C=N\C(=O)OC(C)(C)C)C2 (racemic) [Compound 15, tert-butyl{[3-(4-chlorophenyl)-2-(2-ethylphenyl)-2,4,5,6-tetrahydrocyclopenta[c]pyrazol-5-yl]methylidene}carbamate] | 300 | – | –
COc1ccccc1-n1nc2c(c1-c1ccc(Cl)cc1)CC(CCO)C2 (centres unmarked) [Compound 1, 2-[3-(4-chlorophenyl)-2-(2-methoxyphenyl)-2,4,5,6-tetrahydrocyclopenta[c]pyrazol-5-yl]ethanol] | 200 | – | –
C=CCC1Cc2nn(-c3ccccc3OC)c(-c3ccc(Cl)cc3)c2C1 (centres unmarked) [Compound 4, 3-(4-chlorophenyl)-2-(2-methoxyphenyl)-5-prop-2-en-1-yl-2,4,5,6-tetrahydrocyclopenta[c]pyrazole] | – | 81 | –
COc1ccccc1-n1nc2c(c1-c1ccc(Cl)cc1)CC(C(N)=O)C2 (centres unmarked) [Compound 6, 3-(4-chlorophenyl)-2-(2-methoxyphenyl)-2,4,5,6-tetrahydrocyclopenta[c]pyrazole-5-carboxamide] | 490 | – | 75
COc1ccccc1-n1nc2c(c1-c1ccccc1)CC(CNS(C)(=O)=O)C2 (centres unmarked) [Compound 7, N-{[2-(2-methoxyphenyl)-3-phenyl-2,4,5,6-tetrahydrocyclopenta[c]pyrazol-5-yl]methyl}methanesulfonamide] | – | – | 68
COc1ccccc1-n1nc2c(c1-c1ccccc1)CC(C#N)C2 (centres unmarked) [Compound 9, 2-(2-methoxyphenyl)-3-phenyl-2,4,5,6-tetrahydrocyclopenta[c]pyrazole-5-carbonitrile] | – | – | 59
COc1ccccc1-n1nc2c(c1-c1ccc(Cl)cc1)CC(C#N)C2 (centres unmarked) [Compound 10, 3-(4-chlorophenyl)-2-(2-methoxyphenyl)-2,4,5,6-tetrahydrocyclopenta[c]pyrazole-5-carbonitrile] | 300 | – | 83
CCOC(=O)C1Cc2nn(-c3ccccc3CC)c(-c3ccc(Cl)cc3)c2C1 (centres unmarked) [Compound 14, ethyl 3-(4-chlorophenyl)-2-(2-ethylphenyl)-2,4,5,6-tetrahydrocyclopenta[c]pyrazole-5-carboxylate] | 90 | – | –
CCc1ccccc1-n1nc2c(c1-c1ccc(Cl)cc1)CC(COC(=O)N(CC)CC)C2 (centres unmarked) [Compound 17, [3-(4-chlorophenyl)-2-(2-ethylphenyl)-2,4,5,6-tetrahydrocyclopenta[c]pyrazol-5-yl]methyl diethylcarbamate] | 180 | – | –
CCc1ccccc1-n1nc2c(c1-c1ccc(Cl)cc1)CC(CNS(C)(=O)=O)C2 (centres unmarked) [Compound 18, N-{[3-(4-chlorophenyl)-2-(2-ethylphenyl)-2,4,5,6-tetrahydrocyclopenta[c]pyrazol-5-yl]methyl}methanesulfonamide] | 200 | – | –
CCc1ccccc1-n1nc2c(c1-c1ccc(Cl)cc1)CC(CNC(=O)C(F)(F)F)C2 (centres unmarked) [Compound 19, N-{[3-(4-chlorophenyl)-2-(2-ethylphenyl)-2,4,5,6-tetrahydrocyclopenta[c]pyrazol-5-yl]methyl}-2,2,2-trifluoroacetamide] | 130 | – | –
CC(C)(C)OC(=O)NCCC1Cc2nn(-c3ccccc3C(F)(F)F)c(-c3ccc(Cl)cc3)c2C1 (centres unmarked) [Compound 20, tert-butyl(2-{3-(4-chlorophenyl)-2-[2-(trifluoromethyl)phenyl]-2,4,5,6-tetrahydrocyclopenta[c]pyrazol-5-yl}ethyl)carbamate] | 260 | – | –
CS(=O)(=O)NCCC1Cc2nn(-c3ccccc3C(F)(F)F)c(-c3ccc(Cl)cc3)c2C1 (centres unmarked) [Compound 21, N-(2-{3-(4-chlorophenyl)-2-[2-(trifluoromethyl)phenyl]-2,4,5,6-tetrahydrocyclopenta[c]pyrazol-5-yl}ethyl)methanesulfonamide] | – | 65 | –
CN(C)C(=O)NCCC1Cc2nn(-c3ccccc3C(F)(F)F)c(-c3ccc(Cl)cc3)c2C1 (centres unmarked) [Compound 22, 3-(2-{3-(4-chlorophenyl)-2-[2-(trifluoromethyl)phenyl]-2,4,5,6-tetrahydrocyclopenta[c]pyrazol-5-yl}ethyl)-1,1-dimethylurea] | 220 | – | –
CN(C)C(=O)OC1Cc2nn(-c3ccccc3OC(F)(F)F)c(-c3ccc(Cl)cc3)c2C1 (centres unmarked) [Compound 23, 3-(4-chlorophenyl)-2-[2-(trifluoromethoxy)phenyl]-2,4,5,6-tetrahydrocyclopenta[c]pyrazol-5-yl dimethylcarbamate] | 140 | – | –
O=C(OC1Cc2nn(-c3ccccc3OC(F)(F)F)c(-c3ccc(Cl)cc3)c2C1)N1CCOCC1 (centres unmarked) [Compound 24, 3-(4-chlorophenyl)-2-[2-(trifluoromethoxy)phenyl]-2,4,5,6-tetrahydrocyclopenta[c]pyrazol-5-ylmorpholine-4-carboxylate] | 150 | – | –
OC1Cc2nn(-c3ccccc3OC(F)(F)F)c(-c3ccc(Cl)cc3)c2C1 (centres unmarked) [Compound 25, 3-(4-chlorophenyl)-2-[2-(trifluoromethoxy)phenyl]-2,4,5,6-tetrahydrocyclopenta[c]pyrazol-5-ol] | – | 61 | –
COc1ccccc1-n1nc2c(c1-c1ccc(Cl)cc1)CC(O)C2 (centres unmarked) [Compound 26, 3-(4-chlorophenyl)-2-(2-methoxyphenyl)-2,4,5,6-tetrahydrocyclopenta[c]pyrazol-5-ol] | – | 62 | –
COc1ccccc1-n1nc2c(c1-c1ccc(Cl)cc1)CC(=O)C2 [Compound 35, 3-(4-chlorophenyl)-2-(2-methoxyphenyl)-2,6-dihydrocyclopenta[c]pyrazol-5(4H)-one] | 59 | – | –
CCOc1ccccc1-n1nc2c(c1-c1ccc(Cl)cc1)CC(N1CCCC1=O)C2 (centres unmarked) [Compound 40, 1-[3-(4-chlorophenyl)-2-(2-ethoxyphenyl)-2,4,5,6-tetrahydrocyclopenta[c]pyrazol-5-yl]pyrrolidin-2-one] | 19 | – | –
COc1ccccc1-n1nc2c(c1-c1ccc(Cl)cc1)C[C@@H](OC)C2 [Compound 49, (5R)-3-(4-chlorophenyl)-5-methoxy-2-(2-methoxyphenyl)-2,4,5,6-tetrahydrocyclopenta[c]pyrazole] | 52 | – | 76
COc1cc(Cl)ccc1-n1nc2c(c1-c1ccc(Cl)cc1)CC1(C2)OCCCO1 [Compound 52, 2-(4-Chloro-2-methoxyphenyl)-3-(4-chlorophenyl)-2,6-dihydro-4H-spiro[cyclopenta[c]pyrazole-5,2′-[1,3]dioxane]] | 130 | – | 64
COc1ccccc1-n1nc2c(c1-c1ccc(Cl)cc1)C/C(=N/O)C2 [Compound 53, (5Z)-3-(4-chlorophenyl)-2-(2-methoxyphenyl)-2,6-dihydrocyclopenta[c]pyrazol-5(4H)-one oxime] | – | – | 31
COc1ccccc1-n1nc2c(c1-c1ccc(Cl)cc1)C[C@H](Oc1ccccc1)C2 [Compound 58, (5S)-3-(4-chlorophenyl)-2-(2-methoxyphenyl)-5-phenoxy-2,4,5,6-tetrahydrocyclopenta[c]pyrazole] | 130 | – | 65
COc1ccccc1-n1nc2c(c1-c1ccc(Cl)cc1)C[C@H](Oc1cccnc1)C2 [Compound 59, (5S)-3-(4-chlorophenyl)-2-(2-methoxyphenyl)-5-(pyridin-3-yloxy)-2,4,5,6-tetrahydrocyclopenta[c]pyrazole] | 94 | – | 76
COc1ccccc1-n1nc2c(c1-c1ccc(Cl)cc1)CC(c1ccc(OC(C)C)nc1)C2 (centres unmarked) [Compound 60, 3-(4-chlorophenyl)-2-(2-methoxyphenyl)-5-[6-(1-methylethoxy)pyridin-3-yl]-2,4,5,6-tetrahydrocyclopenta[c]pyrazole] | 280 | – | 62
COc1ccccc1-n1nc2c(c1-c1ccc(Cl)cc1)C[C@@H](Oc1ccccn1)C2 [Compound 61, (5R)-3-(4-chlorophenyl)-2-(2-methoxyphenyl)-5-(pyridin-2-yloxy)-2,4,5,6-tetrahydrocyclopenta[c]pyrazole] | 98 | – | 77
COc1ccccc1-n1nc2c(c1-c1ccc(Cl)cc1)CC(c1ccc(N3CCOCC3)nc1)C2 (centres unmarked) [Compound 62, 3-(4-chlorophenyl)-2-(2-methoxyphenyl)-5-(6-morpholin-4-ylpyridin-3-yl)-2,4,5,6-tetrahydrocyclopenta[c]pyrazole] | – | – | 42
COc1ccccc1-n1nc2c(c1-c1ccc(Cl)cc1)CC(C1CCC(C)(C)CC1)C2 (centres unmarked) [Compound 64, 3-(4-chlorophenyl)-5-(4,4-dimethylcyclohexyl)-2-(2-methoxyphenyl)-2,4,5,6-tetrahydrocyclopenta[c]pyrazole] | 280 | – | 66

Source: patent publication US8853418B2, “Cyclopentylpyrazoles as N-type calcium channel blockers” (Janssen Pharmaceutica NV, priority 2012, dated 2014)
